How the values were obtained:
[1] = Cell counts and viability of LNCaP cells after culture with iron chelator; format: cell-based; conditions: human, LNCaP cells
Protocol: (§1) Comment: Table 2 is data from one of three similar experiments in which cells were cultured for 72 hours following the methods described in the proposal (i.e., cells in 6-well plates for PSA studies and cells in 96-well plates for thymidine incorporation, both at the same cell concentration). […] For viable cells, the per cell production of PSA rose 33.6% (column 8: PSA value of 1.5×10E7 molecules per cell divided by control value of 1.13×10E7). […]

LNCaP cells [2] = test: as above; format: cell-based; conditions: 72 Hrs
Protocol: as §1

LNCaP cells [3] = test: PSA assay on tissue culture supernatants of LNCaP cells cultured with iron chelator; format: cell-based; conditions: for Molecules PSA Per Viable Cell / Total PSA / Molecules PSA Per Cell: 72 Hrs; for Total PSA: from 3.0 ml supernatant per well; for Molecules PSA Per Cell: total cells recovered
Protocol: as §1

LNCaP cells [4] = test: Thymidine (3H) incorporation, LNCaP cells in 96-well plates; format: cell-based; conditions: Homo sapiens, read-out: % Inhibition 3H
Protocol: Comment: Table 2 is data from one of three similar experiments in which cells were cultured for 72 hours following the methods described in the proposal (i.e., cells in 6-well plates for PSA studies and cells in 96-well plates for thymidine incorporation, both at the same cell concentration). […] For viable cells, the per cell production of PSA rose 33.6% (column 8: PSA value of 1.5×10E7 molecules per cell divided by control value of 1.13×10E7).

transferrin receptor = transferrin receptor (Homo sapiens, UniProt P02786); conditions: Forsbeck et al.; cited from earlier work
transferrin receptor, sequence (P02786 whole entry): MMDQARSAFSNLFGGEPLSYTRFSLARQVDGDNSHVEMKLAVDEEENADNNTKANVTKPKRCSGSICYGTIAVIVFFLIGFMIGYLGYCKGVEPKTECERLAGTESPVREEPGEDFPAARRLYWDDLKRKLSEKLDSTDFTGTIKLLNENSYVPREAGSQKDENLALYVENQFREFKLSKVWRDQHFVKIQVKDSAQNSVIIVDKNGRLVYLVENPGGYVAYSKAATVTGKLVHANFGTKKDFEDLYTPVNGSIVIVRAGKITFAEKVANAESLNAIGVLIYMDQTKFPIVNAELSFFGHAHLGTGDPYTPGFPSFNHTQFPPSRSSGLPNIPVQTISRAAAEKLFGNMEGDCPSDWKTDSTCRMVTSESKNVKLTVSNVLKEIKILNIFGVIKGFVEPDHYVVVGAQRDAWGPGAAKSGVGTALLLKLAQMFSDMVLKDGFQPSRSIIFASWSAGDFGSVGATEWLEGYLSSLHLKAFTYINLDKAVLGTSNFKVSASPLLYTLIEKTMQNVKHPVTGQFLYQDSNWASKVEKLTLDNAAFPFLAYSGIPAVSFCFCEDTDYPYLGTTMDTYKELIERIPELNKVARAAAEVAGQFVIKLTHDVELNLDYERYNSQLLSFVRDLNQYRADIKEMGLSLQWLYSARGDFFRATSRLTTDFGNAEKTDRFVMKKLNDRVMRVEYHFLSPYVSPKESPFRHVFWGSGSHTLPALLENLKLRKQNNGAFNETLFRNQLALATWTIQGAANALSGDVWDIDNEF

CC(=O)N(O)CCCCCNC(=O)CCC(=O)N(O)CCCCCNC(=O)CCC(=O)N(O)CCCCCN [Desferal, Deferoxamine]
viability at 72 h, 0.1 ug/ml ([1]; Desferal 0.1 ug/ml): 93% | viability at 72 h, 0.25 ug/ml ([1]; Desferal 0.25 ug/ml): 93.8% | viability at 72 h, 0.5 ug/ml ([1]; Desferal 0.50 ug/ml): 93.4% | viability at 72 h, 1 ug/ml ([1]; Desferal 1.0 ug/ml): 92.2% | viability at 72 h, 2 ug/ml ([1]; Desferal 2.0 ug/ml): 98.3% | viability at 72 h, 2.5 ug/ml ([1]; Desferal 2.5 ug/ml): 94.3% | viability at 72 h, 3 ug/ml ([1]; Desferal 3.0 ug/ml): 90.9% | viability at 72 h, 4 ug/ml ([1]; Desferal 4.0 ug/ml): 85.4% | Total Cells (LNCaP cells [2]; Desferal 0.1 ug/ml): 1.09 × 10^6 | Total Viable Cells (LNCaP cells [2]; Desferal 0.1 ug/ml): 1.01 × 10^6 | Total Cells (LNCaP cells [2]; Desferal 0.25 ug/ml): 1.07 × 10^6 | Total Viable Cells (LNCaP cells [2]; Desferal 0.25 ug/ml): 1.00 × 10^6 | Total Cells (LNCaP cells [2]; Desferal 0.50 ug/ml): 1.13 × 10^6 | Total Viable Cells (LNCaP cells [2]; Desferal 0.50 ug/ml): 1.06 × 10^6 | Total Cells (LNCaP cells [2]; Desferal 1.0 ug/ml): 1.14 × 10^6 | Total Viable Cells (LNCaP cells [2]; Desferal 1.0 ug/ml): 1.05 × 10^6 | Total Cells (LNCaP cells [2]; Desferal 2.0 ug/ml): .900 × 10^6 | Total Viable Cells (LNCaP cells [2]; Desferal 2.0 ug/ml): 840 × 10^6 | Total Cells (LNCaP cells [2]; Desferal 2.5 ug/ml): .810 × 10^6 | Total Viable Cells (LNCaP cells [2]; Desferal 2.5 ug/ml): .760 × 10^6 | Total Cells (LNCaP cells [2]; Desferal 3.0 ug/ml): .744 × 10^6 | Total Viable Cells (LNCaP cells [2]; Desferal 3.0 ug/ml): .680 × 10^6 | Total Cells (LNCaP cells [2]; Desferal 4.0 ug/ml): .730 × 10^6 | Total Viable Cells (LNCaP cells [2]; Desferal 4.0 ug/ml): .620 × 10^6 | rise in production of PSA per viable cell versus control (LNCaP cells [3]; DFO 2.5 micrograms/ml, 72 hours): 33.6% | Molecules PSA Per Viable Cell (LNCaP cells [3]; Desferal 0.1 ug/ml): 1.28 × 10^7 | Total PSA (LNCaP cells [3]; Desferal 0.1 ug/ml): 710 ng | Molecules PSA Per Cell (LNCaP cells [3]; Desferal 0.1 ug/ml): 1.20 × 10^7 | Molecules PSA Per Viable Cell (LNCaP cells [3]; Desferal 0.25 ug/ml): 1.30 × 10^7 | Total PSA (LNCaP cells [3]; Desferal 0.25 ug/ml): 710 ng | Molecules PSA Per Cell (LNCaP cells [3]; Desferal 0.25 ug/ml): 1.22 × 10^7 | Molecules PSA Per Viable Cell (LNCaP cells [3]; Desferal 0.50 ug/ml): 1.14 × 10^7 | Total PSA (LNCaP cells [3]; Desferal 0.50 ug/ml): 650 ng | Molecules PSA Per Cell (LNCaP cells [3]; Desferal 0.50 ug/ml): 1.06 × 10^7 | Molecules PSA Per Viable Cell (LNCaP cells [3]; Desferal 1.0 ug/ml): 1.12 × 10^7 | Total PSA (LNCaP cells [3]; Desferal 1.0 ug/ml): 644 ng | Molecules PSA Per Cell (LNCaP cells [3]; Desferal 1.0 ug/ml): 1.04 × 10^7 | Molecules PSA Per Viable Cell (LNCaP cells [3]; Desferal 2.0 ug/ml): 1.41 × 10^7 | Total PSA (LNCaP cells [3]; Desferal 2.0 ug/ml): 642 ng | Molecules PSA Per Cell (LNCaP cells [3]; Desferal 2.0 ug/ml): 1.32 × 10^7 | Molecules PSA Per Viable Cell (LNCaP cells [3]; Desferal 2.5 ug/ml): 1.51 × 10^7 | Total PSA (LNCaP cells [3]; Desferal 2.5 ug/ml): 627 ng | Molecules PSA Per Cell (LNCaP cells [3]; Desferal 2.5 ug/ml): 1.42 × 10^7 | Molecules PSA Per Viable Cell (LNCaP cells [3]; Desferal 3.0 ug/ml): 1.59 × 10^7 | Total PSA (LNCaP cells [3]; Desferal 3.0 ug/ml): 587 ng | Molecules PSA Per Cell (LNCaP cells [3]; Desferal 3.0 ug/ml): 1.45 × 10^7 | Molecules PSA Per Viable Cell (LNCaP cells [3]; Desferal 4.0 ug/ml): 1.80 × 10^7 | Total PSA (LNCaP cells [3]; Desferal 4.0 ug/ml): 611 ng | Molecules PSA Per Cell (LNCaP cells [3]; Desferal 4.0 ug/ml): 1.54 × 10^7 | inhibition at 0.1 µg/mL (LNCaP cells [4]): 1.8% | inhibition at 0.25 µg/mL (LNCaP cells [4]): 6.8% | inhibition at 0.5 µg/mL (LNCaP cells [4]): 7.4% | inhibition at 1 µg/mL (LNCaP cells [4]): 10.6% | inhibition at 2 µg/mL (LNCaP cells [4]): 21.1% | inhibition at 2.5 µg/mL (LNCaP cells [4]): 26.8% | inhibition at 3 µg/mL (LNCaP cells [4]): 40.3% | inhibition at 4 µg/mL (LNCaP cells [4]): 52.7%

Cc1ccc(C(=O)Nc2ccc(S(=O)(=O)O)c3cc(S(=O)(=O)O)cc(S(=O)(=O)O)c23)cc1NC(=O)c1cccc(NC(=O)Nc2cccc(C(=O)Nc3cc(C(=O)Nc4ccc(S(=O)(=O)O)c5cc(S(=O)(=O)O)cc(S(=O)(=O)O)c45)ccc3C)c2)c1 [suramin]
binding of transferrin to its receptor (transferrin receptor): partially inhibit
